The structures appear in SMILES notation. pKi: −log10 of the molar value. *1 amine or outer side, *2 acyl side, *3 side chain or, on linkers, in order; H or OH if unused. Where a SMILES comes first, the peptide text is derived from it. Bridges are numbered along the chain shown (N, C = ends). TATA = O=C(CC[*:1])N1CN(C(=O)CC[*:2])CN(C(=O)CC[*:3])C1

The target of the first assay is T1, human Nectin-4 (Homo sapiens, UniProt Q96NY8).
T1 sequence (Q96NY8 32-510): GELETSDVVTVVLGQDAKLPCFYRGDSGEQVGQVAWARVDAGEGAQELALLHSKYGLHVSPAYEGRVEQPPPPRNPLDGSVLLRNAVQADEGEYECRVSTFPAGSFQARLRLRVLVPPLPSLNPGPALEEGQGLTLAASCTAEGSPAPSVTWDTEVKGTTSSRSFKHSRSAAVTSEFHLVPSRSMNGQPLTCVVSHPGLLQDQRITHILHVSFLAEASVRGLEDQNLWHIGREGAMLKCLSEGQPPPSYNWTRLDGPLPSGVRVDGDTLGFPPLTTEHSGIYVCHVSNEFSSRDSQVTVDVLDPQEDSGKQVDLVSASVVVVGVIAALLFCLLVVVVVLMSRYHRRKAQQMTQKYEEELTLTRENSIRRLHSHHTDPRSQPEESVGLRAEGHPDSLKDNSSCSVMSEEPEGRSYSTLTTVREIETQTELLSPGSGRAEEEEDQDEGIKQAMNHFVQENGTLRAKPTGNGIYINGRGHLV
In words: Nectin-4 competition binding assay (fluorescence polarisation).
Conditions: not given
The procedure:
Peptides were diluted to an appropriate concentration in assay buffer as described in the direct binding assay with a maximum of 5% DMSO, then serially diluted 1 in 2. Five μL of diluted peptide was added to the plate followed by 10 μL of human Nectin-4, then 10 μL fluorescent peptide added. Measurements were conducted as for the direct binding assay, however the gain was determined prior to the first measurement. Data analysis was in Systat Sigmaplot version 12.0 where the mP values were fit to a user defined cubic equation to generate a Ki value: • f=ymin+(ymax−ymin)/Lig*((Lig*((2*((Klig+Kcomp+Lig+Comp-Prot*c)^2-3*(Kcomp*(Lig-Prot*c)+Klig*(Comp-Prot*c)+Klig*Kcomp))^0.5*COS(ARCCOS((−2*(Klig+Kcomp+Lig+Comp-Prot*c)^3+9*(Klig+Kcomp+Lig+Comp-Prot*c)*(Kcomp*(Lig-Prot*c)+Klig*(Comp-Prot*c)+Klig*Kcomp)−27*(−1*Klig*Kcomp*Prot*c)/(2*((((Klig+Kcomp+Lig+Comp-Prot*c)^2−3*(Kcomp*(Lig-Prot*c)+Klig*(Comp-Prot*c)+Klig*Kcomp))^3)^0.5)))/3))−(Klig+Kcomp+Lig+Comp-Prot*c)))/((3*Klig)+((2*((Klig+Kcomp+Lig+Comp-Prot*c)^2−3*(Kcomp*(Lig-Prot*c)+Klig*(Comp-Prot*c)+Klig*Kcomp))^0.5*COS (ARCCOS ((−2*(Klig+Kcomp+Lig+Comp-Prot*c)^3+9*(Klig+Kcomp+Lig+Comp-Prot*c)*(Kcomp*(Lig-Prot*c)+Klig*(Comp-Prot*c)+Klig*Kcomp)-27*(−1*Klig*Kcomp*Prot*c))/(2*((((Klig+Kcomp+Lig+Comp-Prot*c)^2-3*(Kcomp*(Lig-Prot*c)+Klig*(Comp-Prot+c)+Klig*Kcomp))^3)^0.5))/3)−(Klig+Kcomp+Lig+Comp-Prot*c)))).
“Lig”, “KLig” and “Prot” were all defined values relating to: fluorescent peptide concentration, the Kd of the fluorescent peptide and Nectin concentration respectively.
(Fluorescence polarisation rises when a labelled molecule tumbles more slowly, as on binding a larger partner.)
The pKi is the negative decadic logarithm of the Ki, by convention in mol/L. As for `CC[C@H](C)[C@@H]1NC(=O)[C@@H]2CCCN2C(=O)[C@H](Cc2c[nH]c3ccccc23)NC(=O)[C@H](CO)NC(=O)[C@H](Cc2c[nH]c3ccccc23)NC(=O)[C@H](CC(N)=O)NC(=O)[C@H](CCCCN)NC(=O)[C@H](CCSC)NC(=O)[C@@H]2CSCCC(=O)N3CN(CN(C3)C(=O)CCSC[C@H](NC(=O)[C@H](C)N)C(=O)N3CCC[C@H]3C(=O)N[C@@H](Cc3ccccc3)C(=O)N[C@@H](C)C(=O)N2)C(=O)CCSC[C@@H](C(=O)N[C@H](C(=O)N[C@@H](CC(N)=O)C(=O)N[C@@H](CCCCN)C(N)=O)[C@@H](C)O)NC(=O)[C@H](Cc2c[nH]c3ccccc23)NC1=O` [BCY7354, A-(SEQ ID NO: 6)-TNK], the pKi was 6.05.

The assay is the same for the next values; noted with them: competition with fluorescent peptide SEQ ID NO: 217; read-out: Ki.
On to `CC[C@H](C)[C@@H]1NC(=O)[C@@H]2CCCN2C(=O)[C@H](Cc2c[nH]c3ccccc23)NC(=O)[C@H](CO)NC(=O)[C@H](Cc2c[nH]c3ccccc23)NC(=O)[C@H](CO)NC(=O)[C@H](CCCCN)NC(=O)[C@H](CCSC)NC(=O)[C@@H]2CSCCC(=O)N3CN(CN(C3)C(=O)CCSC[C@H](NC(=O)[C@H](CO)NC(=O)[C@H](CC(=O)O)NC(=O)[C@@H](N)Cc3c[nH]cn3)C(=O)N3CCC[C@H]3C(=O)N[C@@H](Cc3ccccc3)C(=O)NCC(=O)N2)C(=O)CCSC[C@@H](C(=O)N[C@@H](C)C(N)=O)NC(=O)[C@H](Cc2c[nH]c3ccccc23)NC1=O` [BCY3393, HDS-(SEQ ID NO: 51)-A] (H-HDSCPFGCMKSWSWPIWCA-NH2; linker 4-8-18 via TATA), for which the pKi was 6.76.
Still for that read-out and setting: the figure for `CC[C@H](C)[C@@H]1NC(=O)[C@@H]2CCCN2C(=O)[C@H](Cc2c[nH]c3ccccc23)NC(=O)[C@H](CO)NC(=O)[C@H](Cc2c[nH]c3ccccc23)NC(=O)[C@H]([C@@H](C)O)NC(=O)[C@H](CCCCN)NC(=O)[C@H](CCSC)NC(=O)[C@@H]2CSCCC(=O)N3CN(CN(C3)C(=O)CCSC[C@H](NC(=O)[C@H](C)N)C(=O)N3CCC[C@H]3C(=O)N[C@@H](Cc3ccccc3)C(=O)NCC(=O)N2)C(=O)CCSC[C@@H](C(=O)N[C@H](C(=O)N[C@@H](CC(=O)O)C(=O)N[C@@H](CCCCN)C(N)=O)[C@@H](C)O)NC(=O)[C@H](Cc2c[nH]c3ccccc23)NC1=O` [BCY3394, A-(SEQ ID NO: 52)-TDK] (H-ACPFGCMKTWSWPIWCTDK-NH2; linker 2-6-16 via TATA; N-terminus and C-terminus assumed) is 6.99; for `CC[C@H](C)[C@@H]1NC(=O)[C@@H]2CCCN2C(=O)[C@H](Cc2c[nH]c3ccccc23)NC(=O)[C@H](CO)NC(=O)[C@H](Cc2c[nH]c3ccccc23)NC(=O)CNC(=O)[C@H](CCCCN)NC(=O)[C@H](CCSC)NC(=O)[C@@H]2CSCCC(=O)N3CN(CN(C3)C(=O)CCSC[C@H](NC(=O)[C@H](C)N)C(=O)N3CCC[C@H]3C(=O)N[C@@H](Cc3ccccc3)C(=O)NCC(=O)N2)C(=O)CCSC[C@@H](C(=O)N[C@@H](CC(C)C)C(=O)N[C@@H](CCCCN)C(=O)N[C@@H](CC(=O)O)C(N)=O)NC(=O)[C@H](Cc2c[nH]c3ccccc23)NC1=O` [BCY3395, A-(SEQ ID NO: 53)-LKD] (H-ACPFGCMKGWSWPIWCLKD-NH2; linker 2-6-16 via TATA; N-terminus and C-terminus assumed) it is 7.76.
The same measure, in the same setting: the same measure for `CC[C@H](C)[C@@H]1NC(=O)[C@@H]2CCCN2C(=O)[C@H](Cc2c[nH]c3ccccc23)NC(=O)[C@H](CO)NC(=O)[C@H](Cc2c[nH]c3ccccc23)NC(=O)[C@H](Cc2c[nH]cn2)NC(=O)[C@H](CCC(=O)O)NC(=O)[C@H](CCC(N)=O)NC(=O)[C@@H]2CSCCC(=O)N3CN(CN(C3)C(=O)CCSC[C@H](NC(=O)[C@H](C)N)C(=O)N3CCC[C@H]3C(=O)N[C@@H](Cc3ccccc3)C(=O)NCC(=O)N2)C(=O)CCSC[C@@H](C(=O)N[C@H](C(=O)N[C@H](C(=O)N[C@@H](C)C(N)=O)[C@@H](C)O)[C@@H](C)O)NC(=O)[C@H](Cc2c[nH]c3ccccc23)NC1=O` [BCY3396, A-(SEQ ID NO: 54)-TTA] (H-ACPFGCQEHWSWPIWCTTA-NH2; linker 2-6-16 via TATA; N-terminus and C-terminus assumed): 6.99.
For `CC[C@H](C)[C@@H]1NC(=O)[C@@H]2CSCCC(=O)N3CN(CN(C3)C(=O)CCSC[C@H](NC(=O)[C@H](C)N)C(=O)N3CCC[C@H]3C(=O)N[C@@H](Cc3ccccc3)C(=O)NCC(=O)N2)C(=O)CCSC[C@@H](C(=O)N[C@@H](CCC(N)=O)C(=O)N[C@@H](CCSC)C(=O)N[C@@H](CCC(=O)O)C(N)=O)NC(=O)[C@H](Cc2c[nH]c3ccccc23)NC(=O)[C@H]([C@@H](C)CC)NC(=O)[C@@H]2CCCN2C(=O)[C@H](Cc2c[nH]c3ccccc23)NC(=O)[C@H](CO)NC(=O)[C@H](Cc2c[nH]c3ccccc23)NC(=O)[C@H](CO)NC(=O)[C@H](CCCCN)NC1=O` [BCY3397, A-(SEQ ID NO: 55)-QME] (H-ACPFGCIKSWSWPIWCQME-NH2; linker 2-6-16 via TATA; N-terminus and C-terminus assumed), the negative logarithm of the Ki (pKi) was 7.48.
In the case of `CC[C@H](C)[C@@H]1NC(=O)[C@@H]2CCCN2C(=O)[C@H](Cc2c[nH]c3ccccc23)NC(=O)[C@H](CO)NC(=O)[C@H](Cc2c[nH]c3ccccc23)NC(=O)[C@H](CC(=O)O)NC(=O)[C@H](CCC(=O)O)NC(=O)[C@H](CCC(N)=O)NC(=O)[C@@H]2CSCCC(=O)N3CN(CN(C3)C(=O)CCSC[C@H](NC(=O)[C@H](C)N)C(=O)N3CCC[C@H]3C(=O)N[C@@H](Cc3ccccc3)C(=O)NCC(=O)N2)C(=O)CCSC[C@@H](C(=O)N[C@@H](CC(C)C)C(=O)N[C@@H](CO)C(=O)N[C@@H](CCC(=O)O)C(N)=O)NC(=O)[C@H](Cc2c[nH]c3ccccc23)NC1=O` [BCY3398, A-(SEQ ID NO: 56)-LSE] (H-ACPFGCQEDWSWPIWCLSE-NH2; linker 2-6-16 via TATA; N-terminus and C-terminus assumed), the pKi was 6.79.
The same measure, in the same setting: the same measure for `CC[C@H](C)[C@@H]1NC(=O)[C@@H]2CCCN2C(=O)[C@H](Cc2c[nH]c3ccccc23)NC(=O)[C@H](CO)NC(=O)[C@H](Cc2c[nH]c3ccccc23)NC(=O)[C@H](CC(=O)O)NC(=O)[C@H](CO)NC(=O)[C@H](CCSC)NC(=O)[C@@H]2CSCCC(=O)N3CN(CN(C3)C(=O)CCSC[C@H](NC(=O)[C@H](C)N)C(=O)N3CCC[C@H]3C(=O)N[C@@H](Cc3ccccc3)C(=O)NCC(=O)N2)C(=O)CCSC[C@@H](C(=O)N[C@@H](CO)C(=O)N[C@H](C(=O)N[C@@H](CC(=O)O)C(N)=O)[C@@H](C)O)NC(=O)[C@H](Cc2c[nH]c3ccccc23)NC1=O` [BCY3399, A-(SEQ ID NO: 57)-STD] (H-ACPFGCMSDWSWPIWCSTD-NH2; linker 2-6-16 via TATA; N-terminus and C-terminus assumed): 6.39; for `CC[C@H](C)[C@@H]1NC(=O)[C@H](CCCNC(=N)N)NC(=O)[C@@H]2CCCN2C(=O)[C@@H]2CSCCC(=O)N3CN(CN(C3)C(=O)CCSC[C@@H](C(=O)N3CCC[C@H]3C(=O)N[C@@H](CCC(N)=O)C(=O)N[C@@H](C)C(N)=O)NC1=O)C(=O)CCSC[C@H](NC(=O)[C@H](C)N)C(=O)N[C@@H](Cc1c[nH]c3ccccc13)C(=O)N1CCC[C@H]1C(=O)N[C@@H](CC(C)C)C(=O)N[C@@H](CC(=O)O)C(=O)N[C@@H](CC(=O)O)C(=O)N[C@@H](Cc1ccc(O)cc1)C(=O)N[C@@H](Cc1c[nH]c3ccccc13)C(=O)N2` [BCY3401, A-(SEQ ID NO: 58)-PQA] (H-ACWPLDDYWCPRICPQA-NH2; linker 2-10-14 via TATA; N-terminus and C-terminus assumed): 6.81; for `CC[C@H](C)[C@@H]1NC(=O)[C@@H]2CCCN2C(=O)[C@H](Cc2c[nH]c3ccccc23)NC(=O)[C@H](CO)NC(=O)[C@H](Cc2c[nH]c3ccccc23)NC(=O)[C@H](CC(N)=O)NC(=O)[C@H](CCCCN)NC(=O)[C@H](CCSC)NC(=O)[C@@H]2CSCCC(=O)N3CN(CN(C3)C(=O)CCSC[C@H](NC(=O)[C@H](C)N)C(=O)N3CCC[C@H]3C(=O)N[C@@H](Cc3ccccc3)C(=O)NCC(=O)N2)C(=O)CCSC[C@@H](C(=O)N[C@H](C(=O)N[C@@H](CC(N)=O)C(=O)N[C@@H](C)C(N)=O)[C@@H](C)O)NC(=O)[C@H](Cc2c[nH]c3ccccc23)NC1=O` [BCY7348, A-(SEQ ID NO: 1)-TNA]: 7.69.

(Values after US12459974B2, “Bicyclic peptide ligands specific for Nectin-4” (priority 2018, dated 2025).)
